The results in this text go back to patent EP4722207A1, “OXOISOINDOLINYL-SUBSTITUTED TETRAHYDROPYRIMIDINEDIONE DERIVATIVE AND USE THEREOF” (Gluetacs Therapeutics (Shanghai) Co., Ltd., priority 2023, dated 2024).

Common to all, as to format: cell-based
The target of one assay is T1, WEE1 (Homo sapiens, UniProt P30291+Q96SW2).
T1 construct: effects of the compounds of the present disclosure on the expression of target proteins in cells; endogenous in cells; host or cells: human PBMCs (hPBMCs)
Put plainly: Western-blot assay, substrate protein degradation in hPBMCs: WEE1. The following applies: for WEE1 substrate protein remaining %: compounds at 50 nM and 500 nM, 24 hours; for substrate protein remaining % WEE1: 24 hours of compound treatment, 50 nM and 500 nM.

The next assay addresses T2, IKZF1 (Homo sapiens, UniProt Q13422+Q96SW2).
T2 construct: effects of the compounds of the present disclosure on the expression of target proteins in cells; endogenous in cells; host or cells: human PBMCs (hPBMCs)
Put plainly: Western-blot assay, substrate protein degradation in hPBMCs: IKZF1. The following applies: for IKZF1 substrate protein remaining %: compounds at 50 nM and 500 nM, 24 hours; for substrate protein remaining % IKZF1: 24 hours of compound treatment, 50 nM and 500 nM.

The next assay addresses T3, IKZF2 (Homo sapiens, UniProt Q96SW2+Q9UKS7).
T3 construct: effects of the compounds of the present disclosure on the expression of target proteins in cells; endogenous in cells; host or cells: human PBMCs (hPBMCs)
Put plainly: Western-blot assay, substrate protein degradation in hPBMCs: IKZF2. As to conditions: for IKZF2 substrate protein remaining %: compounds at 50 nM and 500 nM, 24 hours; for substrate protein remaining % IKZF2: 24 hours of compound treatment, 50 nM and 500 nM.

The next assay concerns the target T4, IKZF3 (Homo sapiens, UniProt Q96SW2+Q9UKT9).
T4 construct: effects of the compounds of the present disclosure on the expression of target proteins in cells; endogenous in cells; host or cells: human PBMCs (hPBMCs)
Put plainly: Western-blot assay, substrate protein degradation in hPBMCs: IKZF3. The following applies: for IKZF3 substrate protein remaining %: compounds at 50 nM and 500 nM, 24 hours; for substrate protein remaining % IKZF3: 24 hours of compound treatment, 50 nM and 500 nM.

For another assay, the target named is T5, CK1α (Homo sapiens, UniProt P48729+Q96SW2).
T5 construct: effects of the compounds of the present disclosure on the expression of target proteins in cells; endogenous in cells; host or cells: human PBMCs (hPBMCs)
T5 sequence (P48729 whole entry): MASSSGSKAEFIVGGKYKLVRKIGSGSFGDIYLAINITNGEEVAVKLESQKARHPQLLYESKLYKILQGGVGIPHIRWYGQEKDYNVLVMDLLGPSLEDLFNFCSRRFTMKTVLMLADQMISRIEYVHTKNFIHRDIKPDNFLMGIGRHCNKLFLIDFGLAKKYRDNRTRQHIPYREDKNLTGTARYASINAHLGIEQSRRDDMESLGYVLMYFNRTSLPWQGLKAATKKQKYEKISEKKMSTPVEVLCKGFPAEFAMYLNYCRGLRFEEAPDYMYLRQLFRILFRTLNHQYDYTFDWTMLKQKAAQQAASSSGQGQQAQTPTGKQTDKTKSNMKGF
T5 sequence (Q96SW2 whole entry): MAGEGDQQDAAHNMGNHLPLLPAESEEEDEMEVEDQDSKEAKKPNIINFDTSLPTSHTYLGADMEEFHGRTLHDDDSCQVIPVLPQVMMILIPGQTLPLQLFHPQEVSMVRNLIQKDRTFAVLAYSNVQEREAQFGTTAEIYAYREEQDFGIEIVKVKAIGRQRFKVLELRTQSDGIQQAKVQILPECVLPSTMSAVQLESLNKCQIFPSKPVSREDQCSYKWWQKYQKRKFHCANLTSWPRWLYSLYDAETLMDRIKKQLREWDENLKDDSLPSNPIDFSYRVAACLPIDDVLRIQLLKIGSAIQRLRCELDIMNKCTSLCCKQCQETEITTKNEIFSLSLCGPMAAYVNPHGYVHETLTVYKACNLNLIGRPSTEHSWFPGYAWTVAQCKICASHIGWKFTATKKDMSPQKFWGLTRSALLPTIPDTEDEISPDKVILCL
T5 sequence (Q16531 whole entry partner): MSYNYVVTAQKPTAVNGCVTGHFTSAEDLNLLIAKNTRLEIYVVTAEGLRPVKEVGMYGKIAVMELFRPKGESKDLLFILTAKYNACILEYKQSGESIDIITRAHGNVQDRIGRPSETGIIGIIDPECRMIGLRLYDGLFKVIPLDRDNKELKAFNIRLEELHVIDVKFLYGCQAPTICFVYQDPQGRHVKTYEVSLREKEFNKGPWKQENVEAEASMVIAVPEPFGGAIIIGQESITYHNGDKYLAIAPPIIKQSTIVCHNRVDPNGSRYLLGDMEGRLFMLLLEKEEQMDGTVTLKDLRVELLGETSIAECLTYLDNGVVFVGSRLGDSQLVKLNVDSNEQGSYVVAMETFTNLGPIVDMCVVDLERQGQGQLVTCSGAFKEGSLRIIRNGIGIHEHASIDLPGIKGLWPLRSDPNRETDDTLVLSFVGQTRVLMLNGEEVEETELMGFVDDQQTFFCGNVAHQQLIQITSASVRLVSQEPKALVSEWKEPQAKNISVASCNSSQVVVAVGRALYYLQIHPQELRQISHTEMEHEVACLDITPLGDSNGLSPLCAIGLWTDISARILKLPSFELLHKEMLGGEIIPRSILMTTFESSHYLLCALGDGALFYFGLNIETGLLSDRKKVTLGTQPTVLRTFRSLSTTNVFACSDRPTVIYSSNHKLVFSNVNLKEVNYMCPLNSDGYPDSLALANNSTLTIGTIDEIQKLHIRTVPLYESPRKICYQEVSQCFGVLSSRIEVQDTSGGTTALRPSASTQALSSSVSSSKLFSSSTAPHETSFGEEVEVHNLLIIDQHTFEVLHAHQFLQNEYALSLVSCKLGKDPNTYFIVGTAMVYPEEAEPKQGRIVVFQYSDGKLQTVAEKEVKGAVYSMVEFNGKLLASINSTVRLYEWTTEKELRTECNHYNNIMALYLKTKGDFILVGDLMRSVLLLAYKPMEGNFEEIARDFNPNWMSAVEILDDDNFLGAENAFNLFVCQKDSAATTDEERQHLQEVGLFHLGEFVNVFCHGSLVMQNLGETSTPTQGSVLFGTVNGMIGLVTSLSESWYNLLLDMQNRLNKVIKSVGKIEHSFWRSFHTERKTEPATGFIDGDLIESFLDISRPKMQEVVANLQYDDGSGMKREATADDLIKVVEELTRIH
Put plainly: Western-blot assay, substrate protein degradation in hPBMCs: CK1α. The following applies: for CK1α substrate protein remaining %: compounds at 50 nM and 500 nM, 24 hours; for substrate protein remaining % CK1α: 24 hours of compound treatment, 50 nM and 500 nM.

A further assay deals with T6, GSPT1 (Homo sapiens, UniProt P15170+Q96SW2).
T6 construct: effects of the compounds of the present disclosure on the expression of target proteins in cells; endogenous in cells; host or cells: human PBMCs (hPBMCs)
T6 sequence (P15170 whole entry): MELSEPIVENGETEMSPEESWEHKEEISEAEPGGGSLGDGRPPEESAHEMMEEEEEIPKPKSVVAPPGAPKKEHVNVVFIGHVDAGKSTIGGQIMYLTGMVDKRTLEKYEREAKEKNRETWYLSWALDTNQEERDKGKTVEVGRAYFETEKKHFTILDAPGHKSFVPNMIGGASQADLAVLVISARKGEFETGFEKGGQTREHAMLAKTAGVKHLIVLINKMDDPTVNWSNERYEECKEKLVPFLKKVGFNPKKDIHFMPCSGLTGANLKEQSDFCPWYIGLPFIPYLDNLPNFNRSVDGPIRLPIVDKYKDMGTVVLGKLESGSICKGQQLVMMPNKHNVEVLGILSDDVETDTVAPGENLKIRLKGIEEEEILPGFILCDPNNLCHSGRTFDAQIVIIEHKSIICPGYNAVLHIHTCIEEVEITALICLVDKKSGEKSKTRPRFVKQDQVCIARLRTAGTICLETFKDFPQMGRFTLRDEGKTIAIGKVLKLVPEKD
T6 sequence (Q96SW2 whole entry): as the sequence (Q96SW2 whole entry) above
T6 sequence (Q16531 whole entry partner): as the sequence (Q16531 whole entry partner) above
Put plainly: Western-blot assay, substrate protein degradation in hPBMCs: GSPT1. As to conditions: for GSPT1 substrate protein remaining %: compounds at 50 nM and 500 nM, 24 hours; for substrate protein remaining % GSPT1: 24 hours of compound treatment, 50 nM and 500 nM.

T2 sequence (Q13422 whole entry): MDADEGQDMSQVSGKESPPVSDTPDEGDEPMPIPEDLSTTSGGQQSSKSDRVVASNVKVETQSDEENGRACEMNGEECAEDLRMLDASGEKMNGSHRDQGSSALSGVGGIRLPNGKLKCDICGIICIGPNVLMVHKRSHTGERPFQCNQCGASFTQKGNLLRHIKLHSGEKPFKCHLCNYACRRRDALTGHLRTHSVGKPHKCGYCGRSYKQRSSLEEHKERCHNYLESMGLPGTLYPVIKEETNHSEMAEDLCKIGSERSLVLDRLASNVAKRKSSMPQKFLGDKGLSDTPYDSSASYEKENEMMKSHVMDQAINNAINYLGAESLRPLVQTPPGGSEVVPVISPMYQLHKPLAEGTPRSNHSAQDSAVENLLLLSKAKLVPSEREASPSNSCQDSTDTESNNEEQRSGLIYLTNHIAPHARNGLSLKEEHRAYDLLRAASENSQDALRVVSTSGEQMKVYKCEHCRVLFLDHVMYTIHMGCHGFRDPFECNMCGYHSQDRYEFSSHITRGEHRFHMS
T2 sequence (Q96SW2 whole entry): as the sequence (Q96SW2 whole entry) above
T2 sequence (Q16531 whole entry partner): as the sequence (Q16531 whole entry partner) above
T4 sequence (Q9UKT9 whole entry): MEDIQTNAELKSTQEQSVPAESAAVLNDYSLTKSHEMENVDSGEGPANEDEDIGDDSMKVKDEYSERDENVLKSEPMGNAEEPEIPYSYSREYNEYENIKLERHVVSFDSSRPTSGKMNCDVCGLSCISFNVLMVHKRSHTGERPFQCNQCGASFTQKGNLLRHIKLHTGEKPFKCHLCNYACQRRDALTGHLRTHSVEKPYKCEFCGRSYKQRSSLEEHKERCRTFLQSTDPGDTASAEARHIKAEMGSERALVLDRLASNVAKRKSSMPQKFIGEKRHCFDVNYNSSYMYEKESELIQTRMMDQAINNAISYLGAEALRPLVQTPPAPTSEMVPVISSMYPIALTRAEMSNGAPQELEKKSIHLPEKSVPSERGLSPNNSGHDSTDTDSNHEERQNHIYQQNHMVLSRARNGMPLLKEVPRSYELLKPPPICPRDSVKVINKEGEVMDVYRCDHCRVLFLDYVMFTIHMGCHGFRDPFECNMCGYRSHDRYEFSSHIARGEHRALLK
T4 sequence (Q96SW2 whole entry): as the sequence (Q96SW2 whole entry) above
T4 sequence (Q16531 whole entry partner): as the sequence (Q16531 whole entry partner) above
T1 sequence (P30291 whole entry): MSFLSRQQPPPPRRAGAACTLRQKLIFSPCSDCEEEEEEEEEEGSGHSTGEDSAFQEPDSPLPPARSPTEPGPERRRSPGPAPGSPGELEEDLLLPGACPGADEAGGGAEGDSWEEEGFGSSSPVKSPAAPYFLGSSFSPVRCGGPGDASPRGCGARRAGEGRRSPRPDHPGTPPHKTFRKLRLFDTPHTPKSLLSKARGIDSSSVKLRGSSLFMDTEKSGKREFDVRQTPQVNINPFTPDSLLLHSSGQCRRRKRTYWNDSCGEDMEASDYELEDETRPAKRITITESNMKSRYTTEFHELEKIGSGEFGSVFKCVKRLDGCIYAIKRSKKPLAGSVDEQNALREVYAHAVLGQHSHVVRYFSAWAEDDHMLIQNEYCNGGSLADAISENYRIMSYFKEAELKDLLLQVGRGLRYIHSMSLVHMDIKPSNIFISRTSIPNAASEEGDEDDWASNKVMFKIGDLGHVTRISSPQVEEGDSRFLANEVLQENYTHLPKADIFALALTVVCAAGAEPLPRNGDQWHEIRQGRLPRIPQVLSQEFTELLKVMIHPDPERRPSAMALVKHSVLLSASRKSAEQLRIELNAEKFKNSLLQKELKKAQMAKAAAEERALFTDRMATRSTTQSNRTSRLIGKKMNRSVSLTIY
T1 sequence (Q96SW2 whole entry): as the sequence (Q96SW2 whole entry) above
T1 sequence (Q16531 whole entry partner): as the sequence (Q16531 whole entry partner) above

On to `O=C1CCN(N2C(=O)c3ccc(CN4CCN(c5nccc(Cl)c5Br)CC4)cc3C2=O)C(=O)N1` [GT-07291, 5-((4-(3-bromo-4-chloropyridin-2-yl)piperazin-1-yl)methyl)-2-(2,4-dioxotetrahydropyrimidin-1(2H)-yl)isoindoline-1,3-dione], for which, on WEE1, the “WEE1 substrate protein remaining %” value was “A ("A" is defined as 0% ≤ substrate protein remaining % ≤ 80%)”. In addition, the “IKZF1 substrate protein remaining %” value on IKZF1 is listed as “B ("B" is defined as 80%< substrate protein remaining %≤ 100%)”. Moreover, on IKZF2, the “IKZF2 substrate protein remaining %” value is on record as “B ("B" is defined as 80%< substrate protein remaining %≤ 100%)”. Besides, the “IKZF3 substrate protein remaining %” value at IKZF3 is “B ("B" is defined as 80%< substrate protein remaining %≤ 100%)”. Also, the “CK1α substrate protein remaining %” value at CK1α is “B ("B" is defined as 80%< substrate protein remaining %≤ 100%)”. The “GSPT1 substrate protein remaining %” value on GSPT1 is given as “A ("A" is defined as 0% ≤ substrate protein remaining % ≤ 80%)”.

Regarding `O=C1CCN(N2C(=O)c3ccc(CN4CCCN(C(c5ccccc5)c5ccccc5)CC4)cc3C2=O)C(=O)N1` [GT-07295, 5-((4-benzhydryl-1,4-diazepan-1-yl)methyl)-2-(2,4-dioxotetrahydropyrimidin-1(2H)-yl)isoindoline-1,3-dione], the “WEE1 substrate protein remaining %” value at WEE1 is recorded as “B ("B" is defined as 80%< substrate protein remaining %≤ 100%)”. In addition, the “IKZF1 substrate protein remaining %” value at IKZF1 is listed as “B ("B" is defined as 80%< substrate protein remaining %≤ 100%)”. The “IKZF2 substrate protein remaining %” value at IKZF2 is reported as “B ("B" is defined as 80%< substrate protein remaining %≤ 100%)”. Besides, the “IKZF3 substrate protein remaining %” value at IKZF3 is reported as “B ("B" is defined as 80%< substrate protein remaining %≤ 100%)”. Besides, on CK1α, the “CK1α substrate protein remaining %” value is given as “B ("B" is defined as 80%< substrate protein remaining %≤ 100%)”. Further, on GSPT1, the “GSPT1 substrate protein remaining %” value is given as “A ("A" is defined as 0% ≤ substrate protein remaining % ≤ 80%)”.

Take `CC1(C)CCC(CN2CCN(Cc3ccc4c(c3)CN(N3CCC(=O)NC3=O)C4=O)C(C(F)(F)F)C2)=C(c2ccc(Cl)cc2)C1` (stereo not drawn) [GT-07296, 1-(5-((4-((4'-chloro-5,5-dimethyl-3,4,5,6-tetrahydro-[1,1'-biphenyl]-2-yl)methyl)-2-(trifluoromethyl)piperazin-1-yl)methyl)-1-oxoisoindolin-2-yl)dihydropyrimidine-2,4(1H,3H)-dione]: the “substrate protein remaining % WEE1” value at WEE1 is “A (0% ≤ substrate protein remaining % ≤ 80%)”. Besides, the “substrate protein remaining % IKZF1” value at IKZF1 is recorded as “A (0% ≤ substrate protein remaining % ≤ 80%)”. In addition, the “substrate protein remaining % IKZF2” value at IKZF2 is given as “B (80%< substrate protein remaining %≤ 100%)”. Also, the “substrate protein remaining % IKZF3” value on IKZF3 was “B (80%< substrate protein remaining %≤ 100%)”. The “substrate protein remaining % CK1α” value on CK1α is “A (0% ≤ substrate protein remaining % ≤ 80%)”. For the same compound, at GSPT1, the “substrate protein remaining % GSPT1” value is on record as “A (0% ≤ substrate protein remaining % ≤ 80%)”.

In the case of `O=C1CCN(N2Cc3cc(CN4CCN(CC5=C(c6ccc(F)cc6)CCCC5)CC4)ccc3C2=O)C(=O)N1` [GT-07297, 1-(5-((4-((4'-fluoro-3,4,5,6-tetrahydro-[1,1'-biphenyl]-2-yl)methyl)piperazin-1-yl)methyl)-1-oxoisoindolin-2-yl)dihydropyrimidine-2,4(1H,3H)-dione], at WEE1, the “substrate protein remaining % WEE1” value was “A (0% ≤ substrate protein remaining % ≤ 80%)”. For the same compound, the “substrate protein remaining % IKZF1” value at IKZF1 is “B (80%< substrate protein remaining %≤ 100%)”. Also, at IKZF2, the “substrate protein remaining % IKZF2” value is reported as “A (0% ≤ substrate protein remaining % ≤ 80%)”. The “substrate protein remaining % IKZF3” value at IKZF3 is “A (0% ≤ substrate protein remaining % ≤ 80%)”. For the same compound, the “substrate protein remaining % CK1α” value on CK1α is given as “A (0% ≤ substrate protein remaining % ≤ 80%)”. Moreover, the “substrate protein remaining % GSPT1” value at GSPT1 was “A (0% ≤ substrate protein remaining % ≤ 80%)”.

With `CC1(C)CCC(CN2CC3CCC2CN3Cc2ccc3c(c2)C(=O)N(N2CCC(=O)NC2=O)C3=O)=C(c2ccc(Cl)cc2)C1` (stereo not drawn) [GT-07300, 5-((5-((4'-chloro-5,5-dimethyl-3,4,5,6-tetrahydro-[1,1'-biphenyl]-2-yl)methyl)-2,5-diazabicyclo[2.2.2]octan-2-yl)methyl)-2-(2,4-dioxotetrahydropyrimidin-1(2H)-yl)isoindoline-1,3-dione], the “substrate protein remaining % WEE1” value at WEE1 is reported as “A (0% ≤ substrate protein remaining % ≤ 80%)”. For the same compound, at IKZF1, the “substrate protein remaining % IKZF1” value is “B (80%< substrate protein remaining %≤ 100%)”. In addition, on IKZF2, the “substrate protein remaining % IKZF2” value is “B (80%< substrate protein remaining %≤ 100%)”. In addition, at IKZF3, the “substrate protein remaining % IKZF3” value is given as “B (80%< substrate protein remaining %≤ 100%)”. Moreover, the “substrate protein remaining % CK1α” value on CK1α is on record as “B (80%< substrate protein remaining %≤ 100%)”. Moreover, the “substrate protein remaining % GSPT1” value at GSPT1 is “B (80%< substrate protein remaining %≤ 100%)”.

`CC1(C)CCC(CN2CCN(Cc3ccc4c(c3)C(=O)N(N3CCC(=O)NC3=O)C4=O)C(C(F)(F)F)C2)=C(c2ccc(Cl)cc2)C1` (stereo not drawn) [GT-07301, 5-((4-((4'-chloro-5,5-dimethyl-3,4,5,6-tetrahydro-[1,1'-biphenyl]-2-yl)methyl)-2-(trifluoromethyl)piperazin-1-yl)methyl)-2-(2,4-dioxotetrahydropyrimidin-1(2H)-yl)isoindoline-1,3-dione]: the “substrate protein remaining % WEE1” value at WEE1 was “B (80%< substrate protein remaining %≤ 100%)”. Besides, at IKZF1, the “substrate protein remaining % IKZF1” value is given as “B (80%< substrate protein remaining %≤ 100%)”. Moreover, at IKZF2, the “substrate protein remaining % IKZF2” value is “B (80%< substrate protein remaining %≤ 100%)”. At IKZF3, the “substrate protein remaining % IKZF3” value is recorded as “B (80%< substrate protein remaining %≤ 100%)”. Moreover, the “substrate protein remaining % CK1α” value on CK1α is “B (80%< substrate protein remaining %≤ 100%)”. For the same compound, the “substrate protein remaining % GSPT1” value at GSPT1 is “A (0% ≤ substrate protein remaining % ≤ 80%)”.

With `O=C1CCN(N2C(=O)c3ccc(CN4CCN(CC5=C(c6ccc(F)cc6)CCCC5)CC4)cc3C2=O)C(=O)N1` [GT-07302, 2-(2,4-dioxotetrahydropyrimidin-1(2H)-yl)-5-((4-((4'-fluoro-3,4,5,6-tetrahydro-[1,1'-biphenyl]-2-yl)methyl)piperazin-1-yl)methyl)isoindoline-1,3-dione], on WEE1, the “substrate protein remaining % WEE1” value is reported as “A (0% ≤ substrate protein remaining % ≤ 80%)”. Besides, at IKZF1, the “substrate protein remaining % IKZF1” value is recorded as “B (80%< substrate protein remaining %≤ 100%)”. Also, at IKZF2, the “substrate protein remaining % IKZF2” value is given as “B (80%< substrate protein remaining %≤ 100%)”. At IKZF3, the “substrate protein remaining % IKZF3” value is “B (80%< substrate protein remaining %≤ 100%)”. Also, on CK1α, the “substrate protein remaining % CK1α” value is on record as “B (80%< substrate protein remaining %≤ 100%)”. Further, at GSPT1, the “substrate protein remaining % GSPT1” value is listed as “B (80%< substrate protein remaining %≤ 100%)”.

For `CC1(C)CC(c2ccc(Cl)cc2)=C(CN2CCN(Cc3ccc4c(c3)C(=O)N(N3CCC(=O)NC3=O)C4=O)CC2)CO1` [GT-07304, 5-((4-((4-(4-chlorophenyl)-6,6-dimethyl-5,6-dihydro-2H-pyran-3-yl)methyl)piperazin-1-yl)methyl)-2-(2,4-dioxotetrahydropyrimidin-1(2H)-yl)isoindoline-1,3-dione], at WEE1, the “substrate protein remaining % WEE1” value was “B (80%< substrate protein remaining %≤ 100%)”. The “substrate protein remaining % IKZF1” value at IKZF1 is “B (80%< substrate protein remaining %≤ 100%)”. For the same compound, the “substrate protein remaining % IKZF2” value on IKZF2 is given as “B (80%< substrate protein remaining %≤ 100%)”. On IKZF3, the “substrate protein remaining % IKZF3” value was “B (80%< substrate protein remaining %≤ 100%)”. Moreover, the “substrate protein remaining % CK1α” value on CK1α is “A (0% ≤ substrate protein remaining % ≤ 80%)”. Moreover, the “substrate protein remaining % GSPT1” value on GSPT1 was “A (0% ≤ substrate protein remaining % ≤ 80%)”.

With `Cc1ccsc1C1CCN(Cc2ccc3c(c2)CN(N2CCC(=O)NC2=O)C3=O)CC1` [GT-07305, 1-(5-((4-(3-methylthiophen-2-yl)piperidin-1-yl)methyl)-1-oxoisoindolin-2-yl)dihydropyrimidine-2,4(1H,3H)-dione], on WEE1, the “substrate protein remaining % WEE1” value is on record as “B (80%< substrate protein remaining %≤ 100%)”. The “substrate protein remaining % IKZF1” value on IKZF1 is listed as “B (80%< substrate protein remaining %≤ 100%)”. In addition, the “substrate protein remaining % IKZF2” value at IKZF2 is “A (0% ≤ substrate protein remaining % ≤ 80%)”. Also, the “substrate protein remaining % IKZF3” value on IKZF3 is “A (0% ≤ substrate protein remaining % ≤ 80%)”. The “substrate protein remaining % CK1α” value at CK1α is on record as “B (80%< substrate protein remaining %≤ 100%)”. For the same compound, the “substrate protein remaining % GSPT1” value on GSPT1 is listed as “A (0% ≤ substrate protein remaining % ≤ 80%)”.

`Cc1ccsc1C1CCN(Cc2ccc3c(c2)C(=O)N(N2CCC(=O)NC2=O)C3=O)CC1` [GT-07306, 2-(2,4-dioxotetrahydropyrimidin-1(2H)-yl)-5-((4-(3-methylthiophen-2-yl)piperidin-1-yl)methyl)isoindoline-1,3-dione]: the “substrate protein remaining % WEE1” value on WEE1 is “B (80%< substrate protein remaining %≤ 100%)”. Also, the “substrate protein remaining % IKZF1” value on IKZF1 was “B (80%< substrate protein remaining %≤ 100%)”. On IKZF2, the “substrate protein remaining % IKZF2” value is “B (80%< substrate protein remaining %≤ 100%)”. The “substrate protein remaining % IKZF3” value at IKZF3 was “A (0% ≤ substrate protein remaining % ≤ 80%)”. Further, the “substrate protein remaining % CK1α” value at CK1α is “B (80%< substrate protein remaining %≤ 100%)”. The “substrate protein remaining % GSPT1” value on GSPT1 was “A (0% ≤ substrate protein remaining % ≤ 80%)”.
